Assay results: patent US5039706A, “Antiinflammatory PLA2 inhibitors” (Du Pont Merck Pharmaceutical Company, priority 1989, dated 1991)
Structures can show the parent of a compound that is named as a salt.

Tested on: inflammation induced by tetradecanoyl phorbol acetate (TPA)
Experiment: TPA inflammation inhibition test (mouse ear edema)
Type: in vivo, mice
Set-up: dose or concentration left out as unconfirmed
Conditions: topical, 4 h, TPA to right ear, edema measured four hours later, read-out: % Inhibition of Control Swelling
Excerpt: One such model is the inflammation induced by tetradecanoyl phorbol acetate (TPA), modified from the method of Kuehl et al., Nature, 1977, 265, 170; and Van Arman, Clin. Pharmacol. Ther., 1974, 16, 900. The TPA model mimics many of the inflammatory changes which occur in human skin diseases such as psoriasis, since elevated levels of inflammatory arachidonic acid metabolites are found and an influx of polymorphonuclear leukocytes is observed. The test procedure used to evaluate the compounds of Formula (I) is as follows: the test compound […] is applied to both ears of mice in an appropriate vehicle, such as acetone, and then the inflammatory stimulus (TPA) is applied to the right ear. Four hours later, the edema is measured by removing standard size discs from the ears using a biopsy punch. A control group of animals receives TPA in vehicle applied to the right ear, and vehicle alone to the left ear. The weights of the ear discs are determined, and the suppression of swelling observed in animals treated with the test compound is determined.

Point of comparison: CCCCCCCCSCCCC(N)c1ccc(F)cc1 (stereo not drawn) [Example 5, 4-Fluoro-α-[3-(octylthio)propyl]benzenemethanamine Hydrochloride], inhibition in vivo 46%. Against it:
- NC(CCCSc1ccc(F)cc1)c1ccc(F)cc1 (stereo not drawn) [Example 44, 4-Fluoro-α-[3-(4-Fluorophenylthio)propyl]benzenemethanamine Hydrochloride] — lower, 25%
- COc1ccc(CNCCC(N)c2ccc(F)cc2)c2ccccc12 (stereo not drawn) [Example 22, 4-Fluoro-α-(2-[(4-methoxynaphthalenyl)methylamino]ethyl)benzenemethanamine Dihydrochloride] — lower, 26%
- COc1ccc(C(N)CCNCC2(C)CCCC3(C)c4ccc(C(C)C)cc4CCC23)cc1 (stereo not drawn) [Example 57, α-(2-[1,4a-Dimethyl-7-(2-propyl)-1,2,3,4,4a,9,10,10a-octahydro-1-phenanthrenylmethylamino]ethyl)-4-methoxybenzenemethanamine Dihydrochloride] — higher, 60%
- CC(C)c1ccc2c(c1)CCC1C(C)(CNCCC(N)c3ccc(F)cc3)CCCC21C (stereo not drawn) [Example 1, α-(2-[1,4a-Dimethyl-7-(2-propyl)-1,2,3,4,4a,9,10,10a-octahydro-1-phenanthrenylmethylamino]ethyl)-4-fluorobenzenemethanamine Dihydrochloride] — higher, 89%
- CC1(C)C2CCC(CNCCC(N)c3ccc(F)cc3)C1C2 (stereo not drawn) [Example 30, α-[2-(7,7-Dimethylbicyclo[3,1,1]heptyl-2-methylamino)ethyl]-4-fluoro-benzenemethanamine Dihydrochloride] — lower, 34%
- CC1(C)C2CCC(CNCCC(N)c3ccc(F)cc3)C1C2 (single isomer, unassigned) [Example 11, 4-Fluoro-α-(2-[(1α,2α,5α-7,7-dimethylbicyclo[3.1.1]-heptanyl-2-methyl)amino]ethyl)benzenemethanamine Dihydrochloride] — lower, 45%
- CC(C)c1ccc2c(c1)CCC1C(C)(CNCCC(N)c3ccccc3)CCCC21C (stereo not shown) [Example 56, Dihydrochloride] — higher, 64%
- CCCCCCCNCCC(N)c1ccc(F)cc1 (stereo not drawn) [Example 26, 4-Fluoro-α-[2-heptylamino)ethyl]benzenemethanamine Dihydrochloride] — higher, 52%
- CCCCCCCCCCCCCCCCCCNCCC(N)c1ccc(F)cc1 (stereo not drawn) [Example 42, 4-Fluoro-α-[2-(octadecylamino)ethyl]benzenemethanamine Dihydrochloride] — lower, 22%
- CCCCCCCCCCCNCCC(N)c1ccc(F)cc1 (stereo not drawn) [Example 27, 4-Fluoro-α-[2-undecylamino)ethyl]benzenemethanamine Dihydrochloride] — higher, 51%
- NC(CCNCCc1cccc2ccccc12)c1ccc(F)cc1 (stereo not drawn) [Example 40, 4-Fluoro-α-(2-[2-(1-naphthalenyl)ethylamino]ethyl)benzenemethanamine Dihydrochloride] — lower, 29%
- CC(C)c1ccc2c(c1)CCC1C(C)(CNCCCC(N)c3ccc(F)cc3)CCCC21C (stereo not drawn) [Example 8, 4-Fluoro-α-(4-[1,4a-dimethyl-7-(2-propyl)-1,2,3,4,4a,9,10,10a-octahydro-1-phenanthrenylmethylamino]propyl)-benzenemethanamine Dihydrochloride] — higher, 50%
- CCCCCCNCCC(N)c1ccc(F)cc1 (stereo not drawn) [Example 28, 4-Fluoro-α-[2-(hexylamino)ethyl]benzenemethanamine Dihydrochloride] — higher, 51%
- NC(CCCSc1ccccc1)c1ccc(F)cc1 (stereo not drawn) [Example 38, 4-Fluoro-α-(3-phenylthiopropyl)benzenemethanamine Hydrochloride] — lower, 30%
- Cc1ccc(SCCCC(N)c2ccc(F)cc2)cc1 (stereo not drawn) [Example 7, 4-Fluoro-α-[3-(4-methylphenylthio)propyl]benzenemethanamine Hydrochloride] — lower, 22%
- CCCCCCC(C)OCCCC(N)c1ccc(F)cc1 (stereo not drawn) [Example 61, 4-Fluoro-α-[3-(2-octyloxy)propyl]benzenemethanamine] — lower, 25%
- CCCCCCCCNCCC(N)c1ccc(F)cc1 (stereo not drawn) [Example 21, 4-Fluoro-α-[2-(octylamino)ethyl]benzenemethanamine Dihydrochloride] — higher, 68%
- CC(NCCC(N)c1ccc(Cl)cc1)C12CC3CC(CC(C3)C1)C2 (stereo not drawn) [Example 36, 4-Chloro-α-(2-[1-(3-adamantyl)ethylamino]ethyl)benzenemethanamine Dihydrochloride] — higher, 48%
- NC(CCCSc1ccncc1)c1ccc(F)cc1 (stereo not drawn) [Example 10, 4-Fluoro-α-[3-(4-pyridinylthio)propyl]benzenemethanamine Dihydrochloride] — lower, 24%
- CC(C)(C)CC(C)(C)NCCC(N)c1ccc(F)cc1 (stereo not drawn) [Example 34, 4-Fluoro-α-[2-(1,1,3,3-tetramethylbutyl)aminoethyl]benzenemethanamineDihydrochloride] — lower, 22%
- CC(NCCC(N)c1ccc(F)cc1)C12CC3CC(CC(C3)C1)C2 (stereo not drawn) [Example 39, 4-Fluoro-α-(2-[1-(3-adamantyl)ethylamino]ethyl)benzenemethanamine Dihydrochloride] — higher, 50%
